Assay results published in paper PMC13155568, “A plant-specific cytochrome b5–like protein is essential for phytosterol biosynthesis” (Science Advances, 2025).

Molecular target: T1, CBR1 (Arabidopsis thaliana, UniProt Q9ZNT1)
T1 sequence (Q9ZNT1 1-281): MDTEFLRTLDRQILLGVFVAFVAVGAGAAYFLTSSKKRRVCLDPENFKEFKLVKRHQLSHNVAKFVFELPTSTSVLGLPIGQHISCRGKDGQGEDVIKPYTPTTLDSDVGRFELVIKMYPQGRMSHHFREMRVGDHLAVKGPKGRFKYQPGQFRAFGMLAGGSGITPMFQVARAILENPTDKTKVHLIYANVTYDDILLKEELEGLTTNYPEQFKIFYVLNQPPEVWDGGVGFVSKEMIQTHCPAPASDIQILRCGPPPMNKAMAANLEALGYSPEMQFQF
T1 sequence (O22704 22-121 partner limits assumed): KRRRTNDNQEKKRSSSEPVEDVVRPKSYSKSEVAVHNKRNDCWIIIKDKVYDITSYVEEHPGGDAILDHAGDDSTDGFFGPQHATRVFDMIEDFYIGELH
Test: reduction of recombinant CB5LP followed by Soret shift
Type: biochemical
Conditions: 100 uM NADH, 9 uM CB5LP as electron acceptor, Tris-HCl pH 7.5, room temperature

NC(=O)C1=CN([C@@H]2O[C@H](COP(=O)(O)OP(=O)(O)OC[C@H]3O[C@@H](n4cnc5c(N)ncnc54)[C@H](O)[C@@H]3O)[C@@H](O)[C@H]2O)C=CC1 [NADH]
reduction of recombinant CB5LP followed by Soret shift: CB5LP was effectively reduced by CBR1 in the presence of NADH
